This is an account of results in publication PMC6026185 (Scientific Reports, 2018).

Entries after “also recorded” stand apart in the source; their conditions may differ. Where two headings read alike, the source gives them in different places.

The term IC50 denotes the concentration at which inhibition is half-maximal. As a reminder, the pKa is the negative logarithm of the acid dissociation constant.

One data set has as its target T1, hNKCC1A (Homo sapiens, UniProt P55011).
T1 construct: Full-length NKCC1 (NKCC1A) comprises ~1200 amino acids; expressed in transfected cells; host or cells: Xenopus laevis oocytes injected with cRNA (pXOOM vector)
T1 sequence (P55011 1-1212): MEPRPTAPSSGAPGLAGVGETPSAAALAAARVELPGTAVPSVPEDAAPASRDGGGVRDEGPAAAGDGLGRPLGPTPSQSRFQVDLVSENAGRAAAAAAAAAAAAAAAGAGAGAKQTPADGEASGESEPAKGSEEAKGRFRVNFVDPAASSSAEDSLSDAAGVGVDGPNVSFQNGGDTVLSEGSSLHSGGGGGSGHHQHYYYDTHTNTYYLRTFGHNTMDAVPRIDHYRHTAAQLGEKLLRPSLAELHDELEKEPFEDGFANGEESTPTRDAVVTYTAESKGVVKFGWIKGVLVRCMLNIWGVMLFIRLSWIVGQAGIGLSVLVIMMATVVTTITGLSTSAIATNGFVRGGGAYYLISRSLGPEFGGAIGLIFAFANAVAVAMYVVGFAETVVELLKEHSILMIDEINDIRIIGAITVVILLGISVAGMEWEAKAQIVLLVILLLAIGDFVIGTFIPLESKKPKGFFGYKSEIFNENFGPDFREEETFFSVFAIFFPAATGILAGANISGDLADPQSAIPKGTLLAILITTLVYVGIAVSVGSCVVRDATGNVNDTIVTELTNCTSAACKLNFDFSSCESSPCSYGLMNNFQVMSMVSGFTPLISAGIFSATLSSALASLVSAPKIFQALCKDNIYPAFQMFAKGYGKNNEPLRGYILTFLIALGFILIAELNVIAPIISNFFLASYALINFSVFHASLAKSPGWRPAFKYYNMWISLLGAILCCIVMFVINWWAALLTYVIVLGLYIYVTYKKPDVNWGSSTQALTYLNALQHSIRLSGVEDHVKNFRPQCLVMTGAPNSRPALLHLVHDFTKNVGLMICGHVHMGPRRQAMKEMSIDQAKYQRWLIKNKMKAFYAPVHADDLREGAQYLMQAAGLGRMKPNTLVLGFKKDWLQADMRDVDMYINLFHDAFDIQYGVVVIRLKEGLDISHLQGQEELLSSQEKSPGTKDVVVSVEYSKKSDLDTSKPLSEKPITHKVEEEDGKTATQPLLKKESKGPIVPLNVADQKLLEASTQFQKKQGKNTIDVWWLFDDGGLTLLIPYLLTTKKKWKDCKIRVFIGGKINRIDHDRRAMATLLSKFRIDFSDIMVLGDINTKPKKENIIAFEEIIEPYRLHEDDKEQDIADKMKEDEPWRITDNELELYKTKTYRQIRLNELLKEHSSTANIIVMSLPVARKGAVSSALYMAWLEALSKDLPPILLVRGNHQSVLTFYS
Description: 86Rb+ uptake in hNKCC1A-expressing Xenopus laevis oocytes. Particulars: for IC50 / IC50 for hNKCC1A, IC50 (µM) (range): 86Rb+ uptake, Xenopus oocytes, 5 min, corrected for uninjected oocytes, median and range of 3–7 experiments; for Ratio hNKCC1A/ hNKCC1B: ratio of IC50s. The data set is classed as cell-based.

In a further data set the target is T2, hNKCC1B (Homo sapiens, UniProt P55011).
T2 construct: expressed in transfected cells; host or cells: Xenopus laevis oocytes injected with cRNA (pXOOM vector)
T2 sequence (P55011 1-1196 isoform P55011-3): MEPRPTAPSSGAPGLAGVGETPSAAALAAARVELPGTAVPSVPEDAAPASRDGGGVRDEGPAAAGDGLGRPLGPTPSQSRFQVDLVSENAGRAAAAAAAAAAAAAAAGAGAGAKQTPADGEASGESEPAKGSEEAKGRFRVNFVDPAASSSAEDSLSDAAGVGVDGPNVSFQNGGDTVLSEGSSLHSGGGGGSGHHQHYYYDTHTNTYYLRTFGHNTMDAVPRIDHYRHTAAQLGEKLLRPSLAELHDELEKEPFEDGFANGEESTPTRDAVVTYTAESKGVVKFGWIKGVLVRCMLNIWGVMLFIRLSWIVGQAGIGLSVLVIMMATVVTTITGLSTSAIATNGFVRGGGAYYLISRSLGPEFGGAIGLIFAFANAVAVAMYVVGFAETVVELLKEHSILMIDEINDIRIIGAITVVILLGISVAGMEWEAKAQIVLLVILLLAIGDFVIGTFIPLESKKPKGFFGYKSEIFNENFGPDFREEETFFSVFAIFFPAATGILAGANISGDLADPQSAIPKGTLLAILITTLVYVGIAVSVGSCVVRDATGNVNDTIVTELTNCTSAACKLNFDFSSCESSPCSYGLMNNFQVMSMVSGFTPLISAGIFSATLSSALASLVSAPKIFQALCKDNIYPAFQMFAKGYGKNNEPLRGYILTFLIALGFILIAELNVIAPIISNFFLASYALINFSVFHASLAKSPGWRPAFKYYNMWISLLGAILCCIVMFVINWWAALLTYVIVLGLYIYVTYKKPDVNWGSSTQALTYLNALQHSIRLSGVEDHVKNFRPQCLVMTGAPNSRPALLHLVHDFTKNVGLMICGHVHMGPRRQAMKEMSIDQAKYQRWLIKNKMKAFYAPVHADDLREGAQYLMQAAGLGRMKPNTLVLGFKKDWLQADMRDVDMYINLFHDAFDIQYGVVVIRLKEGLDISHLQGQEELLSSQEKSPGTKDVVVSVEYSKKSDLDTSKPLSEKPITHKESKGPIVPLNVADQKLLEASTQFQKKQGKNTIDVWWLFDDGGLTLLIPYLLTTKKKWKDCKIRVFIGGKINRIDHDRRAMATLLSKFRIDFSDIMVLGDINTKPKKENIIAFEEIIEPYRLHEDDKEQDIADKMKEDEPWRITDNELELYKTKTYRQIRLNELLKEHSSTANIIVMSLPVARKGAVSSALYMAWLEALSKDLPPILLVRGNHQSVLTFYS
Description: 86Rb+ uptake in hNKCC1B-expressing Xenopus laevis oocytes. As to conditions: 5 min, corrected for uninjected oocytes, median and range of 3–7 experiments. The data set is classed as cell-based.

On the set-up of data set [1]: method as in ref [30] = [30]; 30. Reilly, R. F. & Jackson, E. K. Goodman & Gilman’s. The Pharmacological Basis of Therapeutics . 12th ed. Brunton, L. L., Chabner, B. A. & Knollmann, B. C. (eds), pp. 671–719 (McGraw-Hill, New York). Particulars: ref [30]; cited from earlier work.
The test system of data set [2] is NKCC2. Set-up: method as in Wittner et al.[54]. As to conditions: Mouse and rabbit kidney TAL; ref Wittner et al.[54]; cited from earlier work.
The conditions of data set [3]: in words, cited from earlier work.
For data set [4] the following is noted: rats, cited from earlier work.
Data set [5] relates to NKCC2. Set-up: method as in Schlatter et al.[23]. Particulars: Rabbit kidney TAL; ref Schlatter et al.[23]; cited from earlier work.
Data set [6] has as its system NKCC2. Set-up: method as in Greven[53]. Particulars: Rat kidney TAL; ref Greven[53]; cited from earlier work.
On the set-up of data set [7]: method as in DrugBank database. As to conditions: ref DrugBank database; cited from earlier work.
On the set-up of data set [8]: method as in DrugBank database. Particulars: ref DrugBank database; cited from earlier work. The source holds these as a separate data set.
The next data set deals with NKCC1. Particulars: Activated state, isoforms not differentiated, turkey erythrocytes, chick cardiac cells, winter flounder intestine, ref Palfrey et al.[48], Frelin et al.[49], O’Grady et al.[50], cited from earlier work.
Data set [9] relates to NKCC2. Set-up: method as in ref Palfrey et al.[48]; Schlatter et al.[23]; Frelin et al.[49]; O’Grady et al.[50]; Glanville et al.[51]; Hannaert et al.[52]. As to conditions: Rabbit kidney TAL; rat kidney TAL; NKCC2 isoforms not differentiated; ref Palfrey et al.[48]; Schlatter et al.[23]; Frelin et al.[49]; O’Grady et al.[50]; Glanville et al.[51]; Hannaert et al.[52]; cited from earlier work.

Another data set relates to hNKCC2 isoform B. Particulars: Xenopus oocytes; ref Gillen et al.[55]; Carota et al.[56]; read-out: IC50 (µM) NKCC2 (hB); cited from earlier work.
The test system of another data set is hNKCC2 isoform A. As to conditions: Xenopus oocytes; ref Gillen et al.[55]; Carota et al.[56]; read-out: IC50 (µM) NKCC2 (hA); cited from earlier work.
Setting [10] is: mIMCD-K2 cells, rat erythrocytes and thymocytes, Schlatter et al.[23], Glanville et al.[51], Hannaert et al.[52].

Turning to `COc1ccc(Cl)cc1C(=O)NCCc1ccc(S(=O)(=O)NC(=O)NC2CCCCC2)cc1` [Glybenclamide, 5-chloro-N-(2-{4-[(cyclohexylcarbamoyl)sulfamoyl]phenyl}ethyl)-2-methoxybenzamide], the IC50 on hNKCC1A and against hNKCC1B was over 100 µM each time. Besides, the “IC50 for hNKCC1A, IC50 (µM) (range)” value on hNKCC1A (listed as glibenclamide) is “did not inhibit; also recorded: inactive”. For the same compound, the “IC50 for hNKCC1B, IC50 (µM) (range)” value on hNKCC1B (listed as glibenclamide) is “did not inhibit; also recorded: inactive”.

Take `Cc1cccc(Nc2ccncc2S(=O)(=O)NC(=O)NC(C)C)c1` [Torasemide]: the “clinical diuretic potency relative to furosemide” value in [1] is on record as “about 3 times”. Besides, the figures for the IC50 with NKCC2 [2], at hNKCC1A and on hNKCC1B were 0.3 µM, 6.18 µM and 8.19 µM, respectively. Also, at hNKCC1A, the “Ratio hNKCC1A/ hNKCC1B” value is given as 0.755. For the same compound, the plasma protein binding entry in data set [3] (ref [33]) is given as “highly bound to plasma proteins”. Besides, the “brain:plasma concentration ratio” value in data set [4] (30 min after i.v. 10 mg/kg, ref [34]) is recorded as 0.00024.

As to `NS(=O)(=O)c1cc(C(=O)NN2CC3C4CCC(C4)C3C2)ccc1Cl` (stereo not drawn) [Tripamide], the concentration for half-maximal inhibition (IC50) against hNKCC1A and on hNKCC1B was over 1000 µM throughout.

`O=C(O)COc1ccc(C(=O)c2cccs2)c(Cl)c1Cl` [Ticrynafen]: the IC50 was 489 µM at hNKCC1A, 410 µM with NKCC2 [5] and 1780 µM on hNKCC1B. Besides, the “Ratio hNKCC1A/ hNKCC1B” value at hNKCC1A is given as 0.275.

Consider `NS(=O)(=O)c1cc(-c2nnn[nH]2)c(NCc2cccs2)cc1Cl` [Azosemide], for which the IC50 with NKCC2 [6] is 3 µM; against hNKCC1A it was 0.246 µM; on hNKCC1B it was 0.197 µM. Also, the pKa in data set [7] is 7.38. The “clinical diuretic potency relative to furosemide” value in data set [1] is “about the same diuretic potency as furosemide”. Moreover, the “Ratio hNKCC1A/ hNKCC1B” value on hNKCC1A amounted to 1.25. Besides, the plasma protein binding entry in data set [3] (ref [31]) is “highly bound to plasma proteins”. Moreover, the “Lipophilicity (logP)” value in data set [8] was 2.38. For the same compound, the brain levels in [4] (30 min following i.v. 20 mg/kg, below detection limit, ref [32]) is recorded as under 0.05 µg/g.

Turning to `CN=C1SCC(O)(c2ccc(Cl)c(S(N)(=O)=O)c2)N1C` (stereo not drawn) [Tizolemide], in the data set with NKCC2 [5], the IC50 was over 100 µM.

Turning to `CN1C(=O)C(N2CCCCC2)S/C1=C/C(=O)O` (stereo not drawn) [Ozolinon], the half-maximal inhibitory concentration (IC50) in the data set with NKCC2 [5] was 11 µM.

As to `NS(=O)(=O)c1cc(C(=O)O)cc(NCc2ccccc2)c1Oc1ccccc1` [Benzmetanide], the half-inhibitory concentration (IC50) in the data set on NKCC1 is 0.05 to 0.3 µM.

`CCOC(=O)/C=C1\SC(N2CCCCC2)C(=O)N1C` (stereo not drawn) [Etozolin]: the IC50 with NKCC2 [5] was over 100 µM.

In the case of `NS(=O)(=O)c1cc(C(=O)O)c(NCc2ccco2)cc1Cl` [Furosemide], the IC50 was 3 to 7.1 µM in the data set with NKCC2 [9], 7.2 µM with hNKCC2 isoform B, 15.1 µM with hNKCC2 isoform A and 7 to 23 µM with NKCC1 (setting [10]).

For the compound `C=C(CC)C(=O)c1ccc(OCC(=O)O)c(Cl)c1Cl` [Ethacrynic acid], the IC50 was 1680 µM against hNKCC1A, 5.1 µM with NKCC2 [5] and 3070 µM on hNKCC1B.

Turning to `CC(c1ccc(Cl)c(Cl)c1)N1N=C(N)CC1=O` (stereo not drawn) [Muzolimine], the IC50 with NKCC2 [5] was over 100 µM.

Consider `Cc1cccc(C)c1NC(=O)c1cc(S(N)(=O)=O)c(Cl)cc1O` [Xipamide, 4-chloro-5-sulfamoyl-2′,6′-salicyloxylidide], for which, on hNKCC1A, the IC50 is over 1750 µM and the “IC50 for hNKCC1A, IC50 (µM) (range)” value was “did not inhibit; also recorded: inactive”. In addition, on hNKCC1B, the half-maximal inhibitory concentration (IC50) is over 1750 µM and the “IC50 for hNKCC1B, IC50 (µM) (range)” value was “did not inhibit; also recorded: inactive”.

Consider `CC1(c2ccccc2)Cc2cc(OCC(=O)O)c(Cl)c(Cl)c2C1=O` (stereo not drawn) [Indacrinone], for which the IC50 in the data set with NKCC2 [5] is 12 µM.

For the compound `NS(=O)(=O)c1cc(C(=O)O)cc(N2CCCC2)c1Oc1ccccc1` [Piretanide], the IC50 in the data set with NKCC2 [9] was 1 to 1.1 µM; at hNKCC1A, 3.35 µM; in the data set on NKCC1 (setting [10]) it was 0.5 to 3 µM; against hNKCC1B, 1.66 µM. Moreover, the “Ratio hNKCC1A/ hNKCC1B” value on hNKCC1A was found to be 2.02.
